Test results taken from ChEMBL document CHEMBL4842383 (J Med Chem, 2021).

Legend:
[1] = biological target: Macrophage colony-stimulating factor 1 receptor (Homo sapiens, UniProt P07333); test: Inhibition of human recombinant GST-CSF1R (residues L534 to C972) expressed in Sf9 insect cells using poly(Glu,Tyr) as substrate incubated for 20 mins by ATP Kinase Glo assay
[2] = biological target: T1, Aurora kinase A (Homo sapiens) (UniProt O14965); test: Inhibition of recombinant GST-AURKA (residues Ser123 to Ser401) (unknown origin) expressed in Sf9 insect cells using tetra(-LRRASLG) peptide as substrate at 1 uM incubated for 90 mins by ATP Kinase Glo assay
T1 sequence (whole entry): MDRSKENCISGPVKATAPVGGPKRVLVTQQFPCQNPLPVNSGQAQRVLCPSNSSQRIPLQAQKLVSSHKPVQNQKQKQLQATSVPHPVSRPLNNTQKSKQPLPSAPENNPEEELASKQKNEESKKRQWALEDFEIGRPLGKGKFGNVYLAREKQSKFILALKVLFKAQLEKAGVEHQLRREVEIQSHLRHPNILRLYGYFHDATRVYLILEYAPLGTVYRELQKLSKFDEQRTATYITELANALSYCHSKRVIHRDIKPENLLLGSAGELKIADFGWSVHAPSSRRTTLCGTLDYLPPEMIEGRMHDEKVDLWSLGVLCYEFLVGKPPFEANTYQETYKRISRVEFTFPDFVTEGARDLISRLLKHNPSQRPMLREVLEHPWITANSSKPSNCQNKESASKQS

Aurora kinase B = Aurora kinase B (Homo sapiens, UniProt Q96GD4); test: Inhibition of human recombinant full length GST-AURKB using tetra(-LRRASLG) peptide as substrate at 0.1 uM incubated for 20 mins by ATP Kinase Glo assay; assay type: biochemical; details: Sf9
Aurora kinase A = biological target: T2, Aurora kinase A (Homo sapiens, UniProt O14965); test: Inhibition of recombinant GST-AURKA (residues Ser123 to Ser401) (unknown origin) expressed in Sf9 insect cells using tetra(-LRRASLG) peptide as substrate incubated for 90 mins by ATP Kinase Glo assay
T2 sequence (O14965 whole entry): T1 sequence (whole entry)

BaF3 = test: Antiproliferative activity against mouse BaF3 cells transfected with human ETV6-CSF1R assessed as reduction in cell viability measured after 72 hrs by MTS method; details: BaF3, 72 h
NFS-60 = test: Antiproliferative activity against mouse NFS-60 cells transfected with human ETV6-CSF1R assessed as reduction in cell viability measured after 72 hrs by MTS method; assay type: functional, cell-based; details: NFS-60, 72 h
[3] = Tmax in Sprague-Dawley rat at 20 to 25 mg/kg, po measured up to 24 hrs by LC-MS/MS analysis; assay type: ADME, organism-based; details: in vivo, dose 20-25 mg/kg
[4] = Dose normalized Cmax in Sprague-Dawley rat at 20 to 25 mg/kg, po measured up to 24 hrs by LC-MS/MS analysis; assay type: ADME, organism-based; details: in vivo, dose 20-25 mg/kg
[5] = Half life in Sprague-Dawley rat at 5 mg/kg, iv measured up to 24 hrs by LC-MS/MS analysis; assay type: ADME, organism-based; details: in vivo
[6] = Oral bioavailability in Sprague-Dawley rat at 20 to 25 mg/kg measured up to 24 hrs by LC-MS/MS analysis; assay type: ADME, organism-based; details: in vivo, dose 20-25 mg/kg
[7] = Dose normalized AUC (0 to inf) in Sprague-Dawley rat at 5 mg/kg, iv measured up to 24 hrs by LC-MS/MS analysis; assay type: ADME, organism-based; details: in vivo
[8] = Dose normalized AUC (0 to inf) in Sprague-Dawley rat at 20 to 25 mg/kg, po measured up to 24 hrs by LC-MS/MS analysis; assay type: ADME, organism-based; details: in vivo, dose 20-25 mg/kg
[9] = Volume of distribution at steady state in Sprague-Dawley rat at 5 mg/kg, iv measured up to 24 hrs by LC-MS/MS analysis; assay type: ADME, organism-based; details: in vivo, read-out: Vdss
[10] = Clearance in Sprague-Dawley rat at 5 mg/kg, iv measured up to 24 hrs by LC-MS/MS analysis; assay type: ADME, organism-based; details: in vivo
[11] = Half life in Sprague-Dawley rat at 20 to 25 mg/kg, po measured up to 24 hrs by LC-MS/MS analysis; assay type: ADME, organism-based; details: in vivo, dose 20-25 mg/kg

Sequence of Macrophage colony-stimulating factor 1 receptor (P07333 whole entry, the tested form may be a part): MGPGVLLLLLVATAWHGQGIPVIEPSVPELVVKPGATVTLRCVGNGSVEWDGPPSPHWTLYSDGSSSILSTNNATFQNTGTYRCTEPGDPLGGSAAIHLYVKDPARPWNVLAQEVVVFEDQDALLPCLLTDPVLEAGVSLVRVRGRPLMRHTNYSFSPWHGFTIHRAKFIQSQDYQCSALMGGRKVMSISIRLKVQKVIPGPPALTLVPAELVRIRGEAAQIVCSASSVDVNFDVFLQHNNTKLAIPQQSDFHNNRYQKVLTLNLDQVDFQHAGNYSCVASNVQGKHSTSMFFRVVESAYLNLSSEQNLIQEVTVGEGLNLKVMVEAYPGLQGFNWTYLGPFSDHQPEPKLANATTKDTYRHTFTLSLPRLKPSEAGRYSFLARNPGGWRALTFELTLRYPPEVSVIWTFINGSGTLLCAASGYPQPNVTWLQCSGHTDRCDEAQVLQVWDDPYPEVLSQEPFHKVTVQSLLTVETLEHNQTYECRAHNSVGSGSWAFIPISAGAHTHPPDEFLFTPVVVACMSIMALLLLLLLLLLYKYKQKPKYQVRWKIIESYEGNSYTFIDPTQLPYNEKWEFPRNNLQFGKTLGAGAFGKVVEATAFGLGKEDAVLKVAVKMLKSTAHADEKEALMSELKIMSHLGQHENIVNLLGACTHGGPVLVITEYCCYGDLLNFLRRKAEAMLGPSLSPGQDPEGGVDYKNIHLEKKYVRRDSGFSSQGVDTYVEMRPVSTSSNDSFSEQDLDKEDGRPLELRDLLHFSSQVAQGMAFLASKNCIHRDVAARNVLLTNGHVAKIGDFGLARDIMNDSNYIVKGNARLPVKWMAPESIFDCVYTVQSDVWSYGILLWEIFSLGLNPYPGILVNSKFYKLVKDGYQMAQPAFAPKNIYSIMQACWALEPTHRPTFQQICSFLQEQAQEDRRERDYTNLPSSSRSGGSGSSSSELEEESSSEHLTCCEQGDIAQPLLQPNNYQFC
Sequence of Aurora kinase B (Q96GD4 whole entry, the tested form may be a part): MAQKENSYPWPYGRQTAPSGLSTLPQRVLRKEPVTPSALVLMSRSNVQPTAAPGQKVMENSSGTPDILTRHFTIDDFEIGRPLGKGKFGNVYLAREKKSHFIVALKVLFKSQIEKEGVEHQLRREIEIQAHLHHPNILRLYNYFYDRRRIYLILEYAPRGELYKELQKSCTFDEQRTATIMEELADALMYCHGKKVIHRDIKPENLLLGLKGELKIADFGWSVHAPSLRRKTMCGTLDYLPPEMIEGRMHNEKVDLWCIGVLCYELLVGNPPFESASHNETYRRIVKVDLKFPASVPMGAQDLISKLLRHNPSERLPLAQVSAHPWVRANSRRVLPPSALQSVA

SMILES | IC50 [1] | inhibition [2] | inhibition (Aurora kinase B) | EC50 (BaF3) | EC50 (NFS-60) | other results
O=C(Nc1ccccc1)Nc1ccc(Oc2ncnc3cc(F)ccc23)cc1 | 753 nM | 13% | 27% | – | – | –
O=C(Nc1cccc(Cl)c1)Nc1ncc(CCNc2ncnc3cc(F)ccc23)s1 | > 10 nM | – | 83% | – | – | IC50 (Aurora kinase A): 9 nM
CN(C)c1ccc2c(Oc3ccc(NC(=O)Nc4ccc(C(F)(F)F)cc4)cc3)ncnc2c1 | 64 nM | 46% | 37% | 49 nM | – | –
CN(C)c1ccc2c(Oc3ccc(NC(=O)NCc4cccnc4)cc3)ncnc2c1 | 79 nM | 1% | 15% | 87 nM | 152 nM | –
Nc1ccc2c(Oc3ccc(NC(=O)Nc4ccccc4)cc3)ncnc2c1 | 58 nM | 47% | 74% | – | – | –
CN(C)c1ccc2c(Oc3ccc(NC(=O)NCc4ccc(C(F)(F)F)cc4)cc3)ncnc2c1 | 91 nM | 16% | 25% | 152 nM | 97 nM | –
CN(C)c1ccc2c(Nc3ccc(NC(=O)Nc4ccccc4)cc3)ncnc2c1 | 243 nM | 33% | 27% | – | – | –
CN(C)c1ccc2ncnc(Oc3ccc(NC(=O)Nc4ccccc4)cc3)c2c1 | 41 nM | 29% | – | – | – | –
COc1ccc(CNC(=O)Nc2ccc(Oc3ncnc4cc(N(C)C)ccc34)cc2)cc1OC | 83 nM | 4% | – | 133 nM | – | –
COc1ccc(Cl)cc1NC(=O)Nc1ccc(Oc2ncnc3cc(N(C)C)ccc23)cc1 | 36 nM | 70% | 41% | 86 nM | 141 nM | –
COc1ccc2c(NCCc3cnc(NC(=O)Nc4cccc(Cl)c4)s3)ncnc2c1 | 112 nM | – | 89% | – | – | IC50 (Aurora kinase A): 9 nM
CN(C)c1ccc2c(Oc3ccc(NC(=O)Nc4cccc(C(F)(F)F)c4)cc3)ncnc2c1 | 64 nM | 35% | 60% | 45 nM | – | –
CN(C)c1ccc2c(Oc3ccc(NC(=O)NCc4ccc(C#N)cc4)cc3)ncnc2c1 | 50 nM | 5% | – | 14.1 nM | 23 nM | –
CNc1ccc2c(Oc3ccc(NC(=O)Nc4ccccc4)cc3)ncnc2c1 | 44 nM | 57% | 76% | – | – | –
O=C(Nc1ccccc1)Nc1ccc(Oc2ncnc3cc(N4CCCC4)ccc23)cc1 | 63 nM | 43% | 43% | – | – | –
COc1cc2ncnc(Oc3ccc(NC(=O)Nc4ccccc4)cc3)c2cc1OC | 30 nM | 46% | – | – | – | –
CN(C)c1ccc2c(Oc3ccc(NC(=O)NCc4ccn(C)n4)cc3)ncnc2c1 | 204 nM | 58% | – | 167 nM | – | –
COc1ccc2c(Oc3ccc(NC(=O)Nc4ccccc4)cc3)ncnc2c1 | 76 nM | 36% | 48% | – | – | –
CN(C)c1ccc2c(Oc3ccc(NC(=O)Nc4ccc(Cl)cc4)cc3)ncnc2c1 | 164 nM | 70% | 50% | 18.4 nM | 25 nM | –
COc1ccc2c(Nc3ccc(NC(=O)Nc4ccccc4)cc3)ncnc2c1 | 124 nM | 56% | 24% | – | – | –
O=C(Nc1ccccc1)Nc1ccc(Oc2ncnc3ccc(N4CCCC4)cc23)cc1 | > 10 nM | 11% | – | – | – | –
COc1cc(Oc2ccnc3cc(OC)c(OC)cc23)ccc1NC(=O)NC(C)c1nccs1 (stereo not given) | – | 42% | 47% | 76 nM | 77 nM | –

Now from value to molecule, other results behind:

IC50 [1] | inhibition [2] | inhibition (Aurora kinase B) | EC50 (BaF3) | SMILES | EC50 (NFS-60) | other results
16.3 nM | 2% | 62% | 662 nM | CN(C)c1ccc2c(Oc3ccc(NC(=O)NCc4ccc(S(N)(=O)=O)cc4)cc3)ncnc2c1 | 1090 nM | –
21 nM | 40% | 61% | 66 nM | CN(C)c1ccc2c(Oc3ccc(NC(=O)Nc4ccccc4)cc3)ncnc2c1 | 92 nM | –
30 nM | 24% | 53% | 116 nM | COc1ccccc1NC(=O)Nc1ccc(Oc2ncnc3cc(N(C)C)ccc23)cc1 | 144 nM | –
24 nM | 2% | 19% | 318 nM | CN(C)c1ccc2c(Oc3ccc(NC(=O)NCc4nccs4)cc3)ncnc2c1 | 202 nM | –
11.1 nM | 53% | 44% | 43 nM | COc1ccc(NC(=O)Nc2ccc(Oc3ncnc4cc(N(C)C)ccc34)cc2)cc1Cl | 53 nM | –
12.7 nM | 2% | 18% | 87 nM | COc1ccc(CNC(=O)Nc2ccc(Oc3ncnc4cc(N(C)C)ccc34)cc2)cn1 | 67 nM | Tmax [3]: 2.3 h; Cmax/dose [4]: 35 ng/mL; half-life [5]: 1.2 h; bioavailability [6]: 30.7%; AUCt/dose [7]: 767 ng.hr/mL per mg/kg; AUCt/dose [8]: 236 ng.hr/mL per mg/kg; Vd [9]: 1.4 L/kg; clearance [10]: 24.7 mL/min/kg; half-life [11]: 4.8 h
12.9 nM | 6% | 29% | 91 nM | COc1ccc(CNC(=O)Nc2ccc(Oc3ncnc4cc(N(C)C)ccc34)cc2)cc1 | 81 nM | Tmax [3]: 6 h; Cmax/dose [4]: 1.7 ng/mL; half-life [5]: 20.6 h; bioavailability [6]: 1.6%; AUCt/dose [7]: 1252 ng.hr/mL per mg/kg; AUCt/dose [8]: 15 ng.hr/mL per mg/kg; Vd [9]: 9 L/kg; clearance [10]: 16.5 mL/min/kg; half-life [11]: 6.7 h
11.6 nM | 46% | 79% | 65 nM | COc1cccc(NC(=O)Nc2ccc(Oc3ncnc4cc(N(C)C)ccc34)cc2)c1 | 108 nM | –
15.4 nM | 35% | 35% | 82 nM | CN(C)c1ccc2c(Oc3ccc(NC(=O)NCCc4ccccc4)cc3)ncnc2c1 | 162 nM | –
11 nM | 4% | 9% | 38 nM | Cc1ccc(CNC(=O)Nc2ccc(Oc3ncnc4cc(N(C)C)ccc34)cc2)cn1 | 68 nM | Tmax [3]: 3.2 h; Cmax/dose [4]: 21 ng/mL; half-life [5]: 10.5 h; bioavailability [6]: 10.4%; AUCt/dose [7]: 1578 ng.hr/mL per mg/kg; AUCt/dose [8]: 164 ng.hr/mL per mg/kg; Vd [9]: 1.5 L/kg; clearance [10]: 5.6 mL/min/kg; half-life [11]: 2.4 h
10.5 nM | 71% | 82% | 20 nM | CN(C)c1ccc2c(Oc3ccc(NC(=O)Nc4cccc(Cl)c4)cc3)ncnc2c1 | 55 nM | –
19 nM | – | – | – | CN(C)CCCOc1ccc2c(NCCc3cnc(NC(=O)Nc4cccc(Cl)c4)s3)ncnc2c1 | – | –
15.4 nM | 43% | 79% | 66 nM | CN(C)c1ccc2c(Oc3ccc(NC(=O)Nc4ccccc4Cl)cc3)ncnc2c1 | 145 nM | –
16.3 nM | 7% | 7% | 85 nM | CN(C)c1ccc2c(Oc3ccc(NC(=O)NCc4ccccc4)cc3)ncnc2c1 | 58 nM | –
1.41 nM | 6% | – | 158 nM | CC(NC(=O)Nc1ccc(Oc2ncnc3cc(N(C)C)ccc23)cc1)c1nccs1 (stereo not given) | – | –
18.6 nM | 3% | 34% | 108 nM | CN(C)c1ccc2c(Oc3ccc(NC(=O)NCc4c(F)c(F)c(F)c(F)c4F)cc3)ncnc2c1 | – | –
